Measured values published in publication PMC12040169 (PLOS Biology, 2025).

Assay: in vitro
Conditions: human, hela cells, % viability

Structure (SMILES)	viability at 28.5 h, 10 µM
Cn1ccc(C(=O)N2CCCC3(C/C=C/Cc4ccccc4OCC(=O)NC3)C2)cc1=O (stereo not shown) [CBK292179]	107%
Cc1c(CN2CCCCC2CCN2CCCC2=O)oc2ccccc12 (stereo not shown) [CBK282181]	104%
CC(=O)N(C)c1nc(-c2ccccc2C)ccc1C(=O)NC1CCCCC1 [CBK106333]	96.9%
CCCC(=O)N(C)C1CCC2(CC1)CNC(=O)c1cc(C)ccc1O2 (stereo not shown) [CBK281694]	88.3%
Cn1cc(NC(=O)CCn2c(C(F)F)cc3cccnc32)cn1 [CBK284740]	90.2%
COc1cc([N+](=O)[O-])ccc1NC(=O)CS(=O)(=O)Cc1ccccc1 [CBK266704]	105%
CC(C)(CN)CN(Cc1c[nH]c(-c2ccccc2)n1)C(=O)Nc1ccc(C(C)(C)C)cc1 [CBK002462C]	87.5%
Cc1ccc(Cl)c(OC(C)C(=O)N2CCC(CC(N)=O)CC2)c1 (stereo not shown) [CBK305762]	93%
CC(=O)Nc1ccc(NC(=O)CN(C2CCCCC2)S(C)(=O)=O)cc1 [CBK266755]	93.3%
CC(C)Nc1nc2ccccc2nc1Sc1cccc(C(=O)O)c1 [CBK115955T]	104%
CC1CCCN(CC(C)(C)NC(=O)c2cc(C3CC3)on2)C1 (stereo not shown) [CBK281677]	94.6%
Nc1ncc(-c2occc2C=O)nc1-c1ccc(F)c(Cl)c1 [CBK064005]	101%
Cc1noc(C)c1S(=O)(=O)Nc1c(C(=O)O)sc2ncccc12 [CBK049988]	99.5%
COCc1c(Br)c(C)nc(OCC(=O)O)c1C#N [CBK266532]	96.9%
COc1ccc(C2(C(=O)NCc3ccncc3)CCOCC2)cc1 [CBK287991]	103%
Cc1nn(C)c(C)c1CCNC(=O)CC1CCCCN1C (stereo not shown) [CBK281774]	97.6%
Clc1ccc(OCCOc2ccccc2)nn1 [CBK176034]	86.7%
O=C1CCCN1CCCNC(=O)N1CCCCC1CO (stereo not shown) [CBK155985]	91.8%
CCN1CCCCC1CNC(=O)c1cc(C2CC2)n[nH]1 (stereo not shown) [CBK282205]	91.1%
Cc1cnc2c(N3CCCC3)nc(-c3cccnc3)cn12 [CBK092277]	98.5%
CCCC(=O)Nc1ccc(C(=O)Nc2ccccc2C(=O)O)cc1 [CBK265111]	121%
O=C1NCCN1CCOc1nccnc1-c1ccsc1 [CBK106766]	93.4%

Structure (SMILES)	viability at 28.5 h, 10 µM
O=C(CNS(=O)(=O)Cc1ccccc1[N+](=O)[O-])N1CCOCC1 [CBK042220]	82.7%
O=S(=O)(c1ccc(C(F)(F)F)cc1Cl)N1CCCN(Cc2ccc3cccc(O)c3n2)CC1 [CBK063036]	101%
Cc1ccc(Cc2cnc(NC(=O)c3ccoc3C)s2)cc1C [CBK298277]	80.1%
CSCCC(=O)Nc1ccc2ncccc2c1 [CBK159818]	87.2%
COc1ccc(S(=O)(=O)NC(=O)NCC2CC3C=CC2C3)cc1 (stereo not shown) [CBK022821]	88.7%
COc1cccc(-c2nc(CC(=O)N3CCC(C(=O)O)CC3)cs2)c1 [CBK286797]	92.3%
COc1cccc(C(=O)Nc2ccc(O)c(C)c2)c1 [CBK264413]	88.1%
CCN(CC)S(=O)(=O)c1c(C)[nH]c(=O)[nH]c1=O [CBK018721]	94.1%
Cc1nc(CCNC(=O)c2nn(-c3cccc(C(C)C)c3)cc2O)cs1 [CBK305438]	109%
CCN1CC2(CCCN(Cc3cncn3C3CCCCC3)C2)CCC1=O (stereo not shown) [CBK307223]	98.1%
CC(C)(C)NC(=O)Cn1cncc1-c1cnn(C2CCCCC2)c1 [CBK281701]	93.5%
CCNC(=O)N1C(CC(=O)OCC)C(=O)NC2CCCCC21 (stereo not shown) [CBK268030]	116%
O=C(c1cccc(Cl)c1)N1CCC(O)(c2cccnc2)CC1 [CBK283553]	93.2%
COc1ccccc1NC(=O)C1=C(C)NC(SCC(=O)Nc2ccc(C(=O)O)cc2)=C(C#N)C1c1cccs1 (stereo not shown) [CBK296139]	102%
CC(=O)Nc1ccc(-c2nc3cnccc3o2)cc1 [CBK287975]	85.9%
O=C(c1ccccc1[N+](=O)[O-])n1nc(-c2cccnc2)nc1NCc1cccs1 [CBK269094]	99.5%
COC(=O)C1CCCN1C(=O)C1(Oc2ccc(C)cc2)CCNCC1 (stereo not shown) [CBK306655]	96.5%
COc1ncc(-c2cc(N3CCN(CCN(C)C)CC3)n3nccc3n2)c(OC)n1 [CBK037033]	87.7%
Cc1ccc(S(=O)(=O)NCCNc2ccc(Cl)cc2[N+](=O)[O-])cc1 [CBK263784]	104%
Fc1cc(Br)c(CNCc2cocn2)c(N2CCCCC2)c1F [CBK304792]	86.8%
Cc1cc2nc(COC(=O)N3CCOCC3)[nH]c2cc1C [CBK200144]	107%
CN(C)c1ncc(-c2ccccc2)c(C2CCCN2Cc2ccc3ncccc3c2)n1 (stereo not shown) [CBK286256]	77.6%

Structure (SMILES)	viability at 28.5 h, 10 µM
O=C(NCCc1ccccc1)c1ccccc1NS(=O)(=O)N1CCCC1 [CBK268407]	80.5%
CCCNC(=O)CN1C(=O)N2CCCN=C2c2ccccc21 [CBK284405]	86%
N#Cc1ccc(C(=O)N2Cc3nc[nH]c3C[C@H]2c2nc(-c3ccncc3)no2)cc1 [CBK288963]	117%
c1cncc(Nc2cccc(-c3ccco3)n2)c1 [CBK037742]	100%
COc1ccc(CCNC(=O)C(N)=O)cc1OC [CBK288457]	90.9%
Cc1cc(NC(=O)c2ccccc2)nc2c1c(=O)oc1ccccc12 [CBK291126]	113%
CN1CCN(CCCNC(=O)N2CCN(c3ccc(F)cc3)CC2)CC1 [CBK156386]	91.2%
CCCN(CCC)C(=O)c1nc(C)c(C(=O)N(CCC)CCC)nc1C [CBK023232]	89.2%
CCn1c(SCC(=O)Nc2ccc(C(=O)O)cc2)nnc1-c1ccccc1C [CBK265927]	107%
COc1ccccc1N1CCN(CCCCNS(=O)(=O)c2ccc(Cl)c(Cl)c2)CC1 [CBK074837]	97.8%
C=CCN(C)C(=O)[C@H]1C[C@@H](O)[C@H](O)[C@@H]2N=C(Nc3ccc(OC)cc3)S[C@@H]21 [CBK288947]	97.1%
O=c1[nH]c2ncc(-c3cccc4ncccc34)nc2n1C1CCCCC1 [CBK064861]	109%
CC(C)(C)OC(=O)N1Cc2c(-c3noc(C4CC4)n3)ncn2-c2ccc(Cl)cc21 [CBK007792]	90.2%
COCC1CCCN1C(=O)c1cnn2c(C)c(Cc3ccc(OC)cc3)c(C)nc12 (stereo not shown) [CBK162190]	107%
COc1ccc(C(=O)Nc2ccccc2OC2CCNCC2)cc1 [CBK050282T]	85%
CC(=O)NCCSc1nc2ccccc2nc1NC(C)C [CBK105618]	102%
CC(C)(C)SCCOC(=O)C1CC(=O)N(Cc2ccccn2)C1 (stereo not shown) [CBK303991]	90.8%
Cc1cc(C)c2cc(C(=O)N(C)CC3(C)COC3)[nH]c2c1 [CBK281711]	87%
COc1ccccc1C(=O)Nc1ccc(Cl)c(C(=O)O)c1 [CBK287034]	82.1%
O=C(O)CCCn1cc(NC(=O)c2c(F)cccc2F)cn1 [CBK269941]	86.6%
COCCN(C)S(=O)(=O)c1cc(C)c(Cl)cc1C [CBK043867]	105%
CC(=O)N1CCC(O)(C2(C)OC(NC3C4CC5CC(C4)CC3C5)=NC2=O)CC1 (stereo not shown) [CBK138181]	91.8%

Structure (SMILES)	viability at 28.5 h, 10 µM
CN1CCC(N2CCN(C(=O)NCc3ccc(Cl)c(Cl)c3)CC2)CC1 [CBK155883]	92.5%
CSCCCNC(=O)N1CCCCC1CO (stereo not shown) [CBK156163]	108%
Cc1cc(N2CCCN3CCCCCC32)nc(N)n1 (stereo not shown) [CBK169746]	102%
CC(Oc1ccc(Cl)cc1Cl)C(=O)NC1CC(C)(C)NC(C)(C)C1 (stereo not shown) [CBK263951C]	90.3%
O=c1[nH]c(=O)c2cc(S(=O)(=O)N3CCC(c4ccccc4)C3)ccc2[nH]1 (stereo not shown) [CBK286382]	105%
Cc1ccc(NC(=O)NC(=O)C2CCN(S(C)(=O)=O)CC2)cc1 [CBK034863]	93.4%
O=S1(=O)CCN(Cc2ccc3c(c2)OCCCO3)CC1 [CBK074831]	101%
O=S(=O)(c1ccccc1)N1CCCC1c1cccs1 (stereo not shown) [CBK057002]	110%
CCCN1CCN(CC(=O)NCc2ccco2)CC1 [CBK270300]	84.2%
O=c1cc2ncc(-c3ccncc3)cn2[nH]1 [CBK011300]	98.3%
O=C(O)CCSc1nnc2[nH]c3ccccc3n12 [CBK265736]	108%
O=S(=O)(NC1c2cccc3cccc(c23)C1Sc1ccccn1)c1ccc(Cl)cc1 (stereo not shown) [CBK264073]	95.1%
Cn1c(SCc2ccc([N+](=O)[O-])cc2)nnc1-c1ccc(NC(=O)c2ccccc2Cl)cc1 [CBK265001]	111%
Cc1ccc(C)c(Nc2nc3nonc3nc2N2CCOCC2)c1 [CBK262491]	88.8%
Cc1noc(C)c1NC(=O)c1ccncc1 [CBK200389]	89.9%
CN(C)C(=O)CN1C(=O)N2CCN=C2c2ccccc21 [CBK283961]	94.7%
O=C(c1n[nH]c2c1CCCC2)N1CC(=O)N(CCc2ccccc2)C(=O)C1 [CBK288110]	98.3%
Cc1nn(S(=O)(=O)c2cccc3nsnc23)c(C)c1Cl [CBK270323]	92.6%
O=C(c1ccc(F)cc1)C1CCN(Cc2ncc[nH]2)CC1 [CBK149135]	90.1%
CCc1ncsc1C(=O)NC1CCCN(c2ccn(C)n2)C1=O (stereo not shown) [CBK306498]	104%
NC(=O)c1cccc(-c2nc(-c3ccc(F)cc3F)cnc2N)c1 [CBK064109]	86.5%
CC(C)(CNC(=O)Cn1cccc(C(=O)Nc2ccc(F)cc2)c1=O)c1ccccc1F [CBK286067]	97.4%

Same assay, conditions: human, hela cells, % viability, bulk resorufin, single well

Structure (SMILES)	viability at 28.5 h, 10 µM
O=C(Nc1ccccc1C(F)(F)F)N1CCC2(CC1)OCCO2 [CBK043655]	94.1%
CC[C@H](N)Cn1nc(-c2cccs2)oc1=O [CBK282393]	82.6%
NCCc1c[nH]c2ccc(OCc3ccccc3)cc12 [CBK260980C]	84.9%
